Test results as given in patent publication US20230331601A1, “METHOD FOR WATER PURIFICATION AND SANITIZATION” (YISSUM RESEARCH DEVELOPMENT COMPANY OF THE HEBREW …, priority 2020, published 2023).
Blank lines part the entries; values can stand above or below the compound they belong to.

Experiments:
Type in all cases: physicochemical
[1] = Decolorization of Rhodamine B solution monitored with UV-Vis spectroscopy; settings: 125 ppm RhB solution (Example 2 conditions)
Source text: UV-Vis spectroscopy: 1800 UV spectrophotometer, Shimadzu, Japan.
Rhodamine B (RhB) is a water-soluble chemical dye which is commonly used as a benchmark to assess the potency of oxidants to decompose organic pollutants in aqueous solution and measure the rate of degradation. De-colorization of RhB solution, that is, the disappearance of the characteristic intense pink color, is readily visible as the decomposition of the dye advances under the action of the tested oxidant and the oxidation reaction can be monitored with UV-Vis spectroscopy. […] Decolorization of 1000 ppm and 125 ppm RhB solutions was completed within eleven minutes and two minutes, respectively, i.e., well before the end of the experiments.

[2] = Degradation of carbamazepine by sodium hydroxide and hydrogen peroxide with phase transfer catalyst and added oxygen (LC-MS)
Description: A 50 ml round bottom flask equipped with a magnetic stirrer was charged with 10 ml of water polluted with 1-100 ppm of carbamazepine (concentrations of 1, 10 and 100 ppm were examined). Sodium hydroxide (0.5 g) was rapidly added followed by addition of 0.02 ml of a phase transfer catalyst (Aliquat 336) Next, 1 ml of aqueous hydrogen peroxide (30% solution) was introduced over 5 minutes. After the addition of hydrogen peroxide, the mixture was held under stirring and pure oxygen was bubbled to the system at a flow rate of 0.5 ml/min over 10 minutes. For each experiment, at the end of the process the final reaction mixture was extracted with 5 ml of Acetone: hexane solution (1:1) and carbamazepine remnant concentration was measured by LC-MS, QTOF 6520, manufactured by Agilent.

[3] = Degradation of xylene by sodium hydroxide and hydrogen peroxide with Aliquat 336, with and without added oxygen (GC-FID)
Description: Experiment A: In the reference experiment, a 50 ml round bottom flask equipped with a magnetic stirrer was charged with 10 ml of water polluted with 100 ppm of xylene. Sodium hydroxide (0.5 g) was rapidly added followed by addition of 0.02 ml of a phase transfer catalyst (Aliquat 336) Next, 1 ml of aqueous hydrogen peroxide (30% solution) was introduced over 5 minutes. After the addition of hydrogen peroxide solution has been completed, the mixture was held under stirring for ten minutes.
Experiment B: To assess the effect of added oxygen, the procedure set forth above was repeated but after the addition of hydrogen peroxide, pure oxygen was bubbled to the system at a flow rate of 1 ml/min over 30 minutes. Upon completion of O2 addition, the mixture was stirred for ten minutes.
For each experiment, samples (0.5 ml) were taken from the reaction mixture at intervals of one minute during the ten minutes hold time and the concentration of remnant xylene was measured by GC-FID. The final reaction mixture was extracted with dichloromethane (10 ml) and analyzed by GC-FID as previously described.

Time to complete decolorization [1]: two
Compound: CCN(CC)c1ccc2c(-c3ccccc3C(=O)O)c3ccc(=[N+](CC)CC)cc-3oc2c1.[Cl-] [Rhodamine B]

conversion rate ([2]; 1 ppm carbamazepine in water): ~ 70%
conversion ([2]; 10 ppm carbamazepine in water): > 90%
conversion ([2]; 100 ppm carbamazepine in water): > 90%
removal rates ([2]; low pollution level of 1 to 10 ppm): 70 to 90%
Compound: NC(=O)N1c2ccccc2C=Cc2ccccc21 [carbamazepine]

Compound: Xylene
Hold time to reach complete oxidation of the pollutant ([3]; Experiment A: 100 ppm xylene, absence of added oxygen): ten
Hold time to reach complete oxidation of the pollutant ([3]; Experiment B: 100 ppm xylene, with added oxygen 1 ml/min over 30 minutes): about six
